In paper PMC10269775, “Penicillin-Binding Protein Occupancy Dataset for 18 β-Lactams and 4 β-Lactamase Inhibitors in Neisseria gonorrhoeae” (Microbiology Spectrum, 2023):
pIC50: −log10 of the molar value. In brackets after ≈: the same amount, converted by molar mass.

molecular target: T1, PBP1 (Neisseria gonorrhoeae, UniProt O05131); experiment: PBP-binding assay (Bocillin FL) in isolated membrane preparations; settings: strain ATCC 19424; membrane preparation, 30 min drug then Bocillin FL; read-out: IC50 PBP1 (converted)
T1 construct: endogenous in cells; host or cells: N. gonorrhoeae ATCC 19424, isolated membrane preparation
Description: (§1) Bacterial membranes were collected by ultracentrifugation.

SMILES	IC50
CCN1CCN(C(=O)N[C@@H](C(=O)N[C@@H]2C(=O)N3[C@@H]2SC(C)(C)[C@@H]3C(=O)O)c2ccccc2)C(=O)C1=O [PIP, piperacillin]	> 3860 nM
CC1(C)S[C@@H]2[C@H](NC(=O)[C@H](C(=O)O)c3ccsc3)C(=O)N2[C@H]1C(=O)O [TIC, ticarcillin]	> 5200 nM
Cn1c(N)c(NC(=O)NCCN)c[n+]1CC1=C(C(=O)O)N2C(=O)[C@@H](NC(=O)/C(=N\OC(C)(C)C(=O)[O-])c3nsc(N)n3)[C@H]2SC1 [TOL, ceftolozane]	> 3000 nM
C[C@]1(Cn2ccnn2)[C@H](C(=O)O)N2C(=O)C[C@H]2S1(=O)=O [TZ, tazobactam]	63300 nM

same assay, conditions: strain ATCC 19424; read-out: IC50 PBP1 (Table S1) (converted)

SMILES	IC50
C[C@]1(Cn2ccnn2)[C@H](C(=O)O)N2C(=O)C[C@H]2S1(=O)=O [TZ, tazobactam]	64000 nM

molecular target: T2, PBP2 (Neisseria gonorrhoeae, UniProt P08149, H541N); experiment: as above; design: species or system Neisseria gonorrhoeae ATCC 19424; settings: IC50 PBP2, strain ATCC 19424; membrane preparation, 30 min drug then Bocillin FL
T2 construct: endogenous in cells; host or cells: N. gonorrhoeae ATCC 19424, isolated membrane preparation

SMILES	pIC50
Cn1c(N)c(NC(=O)NCCN)c[n+]1CC1=C(C(=O)O)N2C(=O)[C@@H](NC(=O)/C(=N\OC(C)(C)C(=O)[O-])c3nsc(N)n3)[C@H]2SC1 [TOL, ceftolozane]	7.22
C[C@]1(Cn2ccnn2)[C@H](C(=O)O)N2C(=O)C[C@H]2S1(=O)=O [TZ, tazobactam]	5.45

same assay, conditions: strain ATCC 19424; membrane preparation, 30 min drug then Bocillin FL; read-out: IC50 PBP2 (converted)

SMILES	IC50
CCN1CCN(C(=O)N[C@@H](C(=O)N[C@@H]2C(=O)N3[C@@H]2SC(C)(C)[C@@H]3C(=O)O)c2ccccc2)C(=O)C1=O [PIP, piperacillin]	38.6 nM
CC1(C)S[C@@H]2[C@H](NC(=O)[C@H](C(=O)O)c3ccsc3)C(=O)N2[C@H]1C(=O)O [TIC, ticarcillin]	494 nM

molecular target: T3, PBP1 (Neisseria gonorrhoeae, UniProt O05131, A375T/F666S); experiment: as above; design: species or system Neisseria gonorrhoeae ATCC 49226; settings: IC50 PBP1 (Table S1), strain ATCC 49226
T3 construct: endogenous in cells; host or cells: N. gonorrhoeae ATCC 49226, isolated membrane preparation
Description: as §1

SMILES	pIC50
C[C@]1(Cn2ccnn2)[C@H](C(=O)O)N2C(=O)C[C@H]2S1(=O)=O [TZ, tazobactam]	4.08

same assay, conditions: IC50 PBP1, strain ATCC 49226; membrane preparation, 30 min drug then Bocillin FL

SMILES	pIC50
CCN1CCN(C(=O)N[C@@H](C(=O)N[C@@H]2C(=O)N3[C@@H]2SC(C)(C)[C@@H]3C(=O)O)c2ccccc2)C(=O)C1=O [PIP, piperacillin]	< 5.41
CC1(C)S[C@@H]2[C@H](NC(=O)[C@H](C(=O)O)c3ccsc3)C(=O)N2[C@H]1C(=O)O [TIC, ticarcillin]	< 5.28
Cn1c(N)c(NC(=O)NCCN)c[n+]1CC1=C(C(=O)O)N2C(=O)[C@@H](NC(=O)/C(=N\OC(C)(C)C(=O)[O-])c3nsc(N)n3)[C@H]2SC1 [TOL, ceftolozane]	< 5.52
C[C@]1(Cn2ccnn2)[C@H](C(=O)O)N2C(=O)C[C@H]2S1(=O)=O [TZ, tazobactam]	4.08

molecular target: T4, PBP2 (Neisseria gonorrhoeae, UniProt P08149, A510V/A516G/A574V/F504L/H541N/I556V/I566V/K555Q/P552V); experiment: biochemical; type: binding, Neisseria gonorrhoeae ATCC 49226; settings: IC50 PBP2, strain ATCC 49226; membrane preparation, 30 min drug then Bocillin FL
T4 construct: endogenous in cells; host or cells: N. gonorrhoeae ATCC 49226, isolated membrane preparation

SMILES	pIC50
CCN1CCN(C(=O)N[C@@H](C(=O)N[C@@H]2C(=O)N3[C@@H]2SC(C)(C)[C@@H]3C(=O)O)c2ccccc2)C(=O)C1=O [PIP, piperacillin]	7.71
CC1(C)S[C@@H]2[C@H](NC(=O)[C@H](C(=O)O)c3ccsc3)C(=O)N2[C@H]1C(=O)O [TIC, ticarcillin]	< 5.28
Cn1c(N)c(NC(=O)NCCN)c[n+]1CC1=C(C(=O)O)N2C(=O)[C@@H](NC(=O)/C(=N\OC(C)(C)C(=O)[O-])c3nsc(N)n3)[C@H]2SC1 [TOL, ceftolozane]	6.39
C[C@]1(Cn2ccnn2)[C@H](C(=O)O)N2C(=O)C[C@H]2S1(=O)=O [TZ, tazobactam]	5.32

system: N. gonorrhoeae ATCC 19424; experiment: MIC, CLSI broth microdilution; type: cell-based; settings: Neisseria gonorrhoeae, ATCC19424; strain ATCC 19424; read-out: MIC

SMILES	MIC
CCN1CCN(C(=O)N[C@@H](C(=O)N[C@@H]2C(=O)N3[C@@H]2SC(C)(C)[C@@H]3C(=O)O)c2ccccc2)C(=O)C1=O [PIP, piperacillin]	0.001 µg/mL (≈ 0.00193 µM)
CC1(C)S[C@@H]2[C@H](NC(=O)[C@H](C(=O)O)c3ccsc3)C(=O)N2[C@H]1C(=O)O [TIC, ticarcillin]	0.016 µg/mL (≈ 0.0416 µM)
Cn1c(N)c(NC(=O)NCCN)c[n+]1CC1=C(C(=O)O)N2C(=O)[C@@H](NC(=O)/C(=N\OC(C)(C)C(=O)[O-])c3nsc(N)n3)[C@H]2SC1 [TOL, ceftolozane]	0.032 µg/mL (≈ 0.048 µM)
C[C@]1(Cn2ccnn2)[C@H](C(=O)O)N2C(=O)C[C@H]2S1(=O)=O [TZ, tazobactam]	0.125 µg/mL (≈ 0.416 µM)

same assay, conditions: Neisseria gonorrhoeae, ATCC19424; strain ATCC 19424; read-out: MIC (Table S1)

SMILES	MIC
CCN1CCN(C(=O)N[C@@H](C(=O)N[C@@H]2C(=O)N3[C@@H]2SC(C)(C)[C@@H]3C(=O)O)c2ccccc2)C(=O)C1=O [PIP, piperacillin]	0.001 µg/mL (≈ 0.00193 µM)
CC1(C)S[C@@H]2[C@H](NC(=O)[C@H](C(=O)O)c3ccsc3)C(=O)N2[C@H]1C(=O)O [TIC, ticarcillin]	0.016 µg/mL (≈ 0.0416 µM)
Cn1c(N)c(NC(=O)NCCN)c[n+]1CC1=C(C(=O)O)N2C(=O)[C@@H](NC(=O)/C(=N\OC(C)(C)C(=O)[O-])c3nsc(N)n3)[C@H]2SC1 [TOL, ceftolozane]	0.032 µg/mL (≈ 0.048 µM)
C[C@]1(Cn2ccnn2)[C@H](C(=O)O)N2C(=O)C[C@H]2S1(=O)=O [TZ, tazobactam]	0.125 µg/mL (≈ 0.416 µM)

system: N. gonorrhoeae ATCC 49226; experiment: MIC, CLSI broth microdilution; type: cell-based, Neisseria gonorrhoeae; settings: ATCC 49226 versus ATCC 19424

SMILES	MIC increase for strain ATCC 49226
CCN1CCN(C(=O)N[C@@H](C(=O)N[C@@H]2C(=O)N3[C@@H]2SC(C)(C)[C@@H]3C(=O)O)c2ccccc2)C(=O)C1=O [PIP, piperacillin]	125 fold

same assay, conditions: Neisseria gonorrhoeae, ATCC49226; strain ATCC 49226; read-out: MIC

SMILES	MIC
CC1(C)S[C@@H]2[C@H](NC(=O)[C@H](C(=O)O)c3ccsc3)C(=O)N2[C@H]1C(=O)O [TIC, ticarcillin]	0.5 µg/mL (≈ 1.3 µM)
Cn1c(N)c(NC(=O)NCCN)c[n+]1CC1=C(C(=O)O)N2C(=O)[C@@H](NC(=O)/C(=N\OC(C)(C)C(=O)[O-])c3nsc(N)n3)[C@H]2SC1 [TOL, ceftolozane]	0.25 µg/mL (≈ 0.375 µM)
C[C@]1(Cn2ccnn2)[C@H](C(=O)O)N2C(=O)C[C@H]2S1(=O)=O [TZ, tazobactam]	1 µg/mL (≈ 3.33 µM)

same assay, conditions: Neisseria gonorrhoeae, ATCC49226; strain ATCC 49226; read-out: MIC (Table S1)

SMILES	MIC
CCN1CCN(C(=O)N[C@@H](C(=O)N[C@@H]2C(=O)N3[C@@H]2SC(C)(C)[C@@H]3C(=O)O)c2ccccc2)C(=O)C1=O [PIP, piperacillin]	0.125 µg/mL (≈ 0.242 µM)
CC1(C)S[C@@H]2[C@H](NC(=O)[C@H](C(=O)O)c3ccsc3)C(=O)N2[C@H]1C(=O)O [TIC, ticarcillin]	0.5 µg/mL (≈ 1.3 µM)
Cn1c(N)c(NC(=O)NCCN)c[n+]1CC1=C(C(=O)O)N2C(=O)[C@@H](NC(=O)/C(=N\OC(C)(C)C(=O)[O-])c3nsc(N)n3)[C@H]2SC1 [TOL, ceftolozane]	0.25 µg/mL (≈ 0.375 µM)
C[C@]1(Cn2ccnn2)[C@H](C(=O)O)N2C(=O)C[C@H]2S1(=O)=O [TZ, tazobactam]	1 µg/mL (≈ 3.33 µM)

same assay, conditions: strain ATCC 49226

SMILES	MIC
Cn1c(N)c(NC(=O)NCCN)c[n+]1CC1=C(C(=O)O)N2C(=O)[C@@H](NC(=O)/C(=N\OC(C)(C)C(=O)[O-])c3nsc(N)n3)[C@H]2SC1 [TOL, ceftolozane]	0.250 µg/mL (≈ 0.375 µM)

molecular target: PBP1, PBP2 and PBP3 (Neisseria gonorrhoeae, UniProt P08149, H541N); experiment: not given; type: binding, Neisseria gonorrhoeae ATCC 19424; settings: read-out: min. IC50 (minimum observed IC50 value); strain ATCC 19424

SMILES	pIC50
CCN1CCN(C(=O)N[C@@H](C(=O)N[C@@H]2C(=O)N3[C@@H]2SC(C)(C)[C@@H]3C(=O)O)c2ccccc2)C(=O)C1=O [PIP, piperacillin]	7.41
CC1(C)S[C@@H]2[C@H](NC(=O)[C@H](C(=O)O)c3ccsc3)C(=O)N2[C@H]1C(=O)O [TIC, ticarcillin]	6.31
Cn1c(N)c(NC(=O)NCCN)c[n+]1CC1=C(C(=O)O)N2C(=O)[C@@H](NC(=O)/C(=N\OC(C)(C)C(=O)[O-])c3nsc(N)n3)[C@H]2SC1 [TOL, ceftolozane]	7.22
C[C@]1(Cn2ccnn2)[C@H](C(=O)O)N2C(=O)C[C@H]2S1(=O)=O [TZ, tazobactam]	5.45

molecular target: PBP1, PBP2 and PBP3 (Neisseria gonorrhoeae, UniProt P08149, A510V/A516G/A574V/F504L/H541N/I556V/I566V/K555Q/P552V); experiment: not given; type: binding, Neisseria gonorrhoeae ATCC 49226; settings: read-out: min. IC50 (minimum observed IC50 value); strain ATCC 49226

SMILES	pIC50
CCN1CCN(C(=O)N[C@@H](C(=O)N[C@@H]2C(=O)N3[C@@H]2SC(C)(C)[C@@H]3C(=O)O)c2ccccc2)C(=O)C1=O [PIP, piperacillin]	7.71
Cn1c(N)c(NC(=O)NCCN)c[n+]1CC1=C(C(=O)O)N2C(=O)[C@@H](NC(=O)/C(=N\OC(C)(C)C(=O)[O-])c3nsc(N)n3)[C@H]2SC1 [TOL, ceftolozane]	6.39
C[C@]1(Cn2ccnn2)[C@H](C(=O)O)N2C(=O)C[C@H]2S1(=O)=O [TZ, tazobactam]	5.32

molecular target: T5, PBP1, PBP2 and PBP3 (Neisseria gonorrhoeae, UniProt Q5FAB9); experiment: not given; type: binding, Neisseria gonorrhoeae ATCC 49226; settings: read-out: min. IC50 (minimum observed IC50 value); strain ATCC 49226
T5 sequence (Q5FAB9 22-469): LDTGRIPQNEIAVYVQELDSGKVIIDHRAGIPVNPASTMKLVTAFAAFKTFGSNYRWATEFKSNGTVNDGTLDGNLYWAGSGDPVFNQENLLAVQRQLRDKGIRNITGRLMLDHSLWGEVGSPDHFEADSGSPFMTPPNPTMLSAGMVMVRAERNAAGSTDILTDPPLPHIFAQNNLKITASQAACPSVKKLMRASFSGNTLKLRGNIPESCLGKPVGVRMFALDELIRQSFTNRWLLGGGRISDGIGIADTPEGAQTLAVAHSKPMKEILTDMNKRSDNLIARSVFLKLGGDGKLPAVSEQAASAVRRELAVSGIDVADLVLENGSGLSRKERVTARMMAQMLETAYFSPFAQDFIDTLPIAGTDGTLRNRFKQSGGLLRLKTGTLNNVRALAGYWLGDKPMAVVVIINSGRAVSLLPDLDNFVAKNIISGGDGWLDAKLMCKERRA

SMILES	pIC50
CC1(C)S[C@@H]2[C@H](NC(=O)[C@H](C(=O)O)c3ccsc3)C(=O)N2[C@H]1C(=O)O [TIC, ticarcillin]	5.79

molecular target: T6, PBP3 (Neisseria gonorrhoeae, UniProt Q5FAB9); experiment: not given; settings: read-out: IC50 PBP3; strain ATCC 19424; membrane preparation, 30 min drug then Bocillin FL
T6 sequence (Q5FAB9 22-469): T5 sequence (Q5FAB9 22-469)

SMILES	pIC50
CC1(C)S[C@@H]2[C@H](NC(=O)[C@H](C(=O)O)c3ccsc3)C(=O)N2[C@H]1C(=O)O [TIC, ticarcillin]	5.56
Cn1c(N)c(NC(=O)NCCN)c[n+]1CC1=C(C(=O)O)N2C(=O)[C@@H](NC(=O)/C(=N\OC(C)(C)C(=O)[O-])c3nsc(N)n3)[C@H]2SC1 [TOL, ceftolozane]	< 5.52
C[C@]1(Cn2ccnn2)[C@H](C(=O)O)N2C(=O)C[C@H]2S1(=O)=O [TZ, tazobactam]	4.80

molecular target: T6, PBP3; experiment: not given; settings: read-out: IC50 PBP3; strain ATCC 49226; membrane preparation, 30 min drug then Bocillin FL

SMILES	pIC50
CC1(C)S[C@@H]2[C@H](NC(=O)[C@H](C(=O)O)c3ccsc3)C(=O)N2[C@H]1C(=O)O [TIC, ticarcillin]	5.79
Cn1c(N)c(NC(=O)NCCN)c[n+]1CC1=C(C(=O)O)N2C(=O)[C@@H](NC(=O)/C(=N\OC(C)(C)C(=O)[O-])c3nsc(N)n3)[C@H]2SC1 [TOL, ceftolozane]	< 5.52
C[C@]1(Cn2ccnn2)[C@H](C(=O)O)N2C(=O)C[C@H]2S1(=O)=O [TZ, tazobactam]	4.72
